Entries after “also recorded” stand apart in the source; their conditions may differ. Where two headings read alike, the source gives them in different places. Values belong to the compound of their own block, whether it stands above or below them.
Assays:
[1] = target: human reticulocyte 15-lipoxygenase-1 (12/15-LOX) (Homo sapiens (Human), UniProt P16050); assay: Lipoxygenase UV-Vis cuvette-based assay, 12/15-LOX; format: biochemical; conditions: for 12/15-LOX inhibition in words: SAR discussion, human 12/15-LOX
Sequence of human reticulocyte 15-lipoxygenase-1 (12/15-LOX) (P16050 whole entry): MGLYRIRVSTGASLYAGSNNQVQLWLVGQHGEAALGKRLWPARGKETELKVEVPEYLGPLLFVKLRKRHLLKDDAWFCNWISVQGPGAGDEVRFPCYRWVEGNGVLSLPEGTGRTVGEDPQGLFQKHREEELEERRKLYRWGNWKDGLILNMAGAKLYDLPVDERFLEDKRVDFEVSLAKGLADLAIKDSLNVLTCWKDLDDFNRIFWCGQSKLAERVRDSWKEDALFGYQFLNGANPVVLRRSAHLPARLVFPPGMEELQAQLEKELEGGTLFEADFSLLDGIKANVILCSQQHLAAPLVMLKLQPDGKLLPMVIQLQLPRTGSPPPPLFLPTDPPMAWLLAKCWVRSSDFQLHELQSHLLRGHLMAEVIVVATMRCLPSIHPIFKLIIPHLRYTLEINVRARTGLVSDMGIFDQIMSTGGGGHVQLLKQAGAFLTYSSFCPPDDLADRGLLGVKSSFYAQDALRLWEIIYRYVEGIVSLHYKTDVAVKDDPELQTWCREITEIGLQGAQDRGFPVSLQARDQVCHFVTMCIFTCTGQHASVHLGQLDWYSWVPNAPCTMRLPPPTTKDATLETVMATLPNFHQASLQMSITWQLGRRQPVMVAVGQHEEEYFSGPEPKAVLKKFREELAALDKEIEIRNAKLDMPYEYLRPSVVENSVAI
Experimental: (§1) Human 5-lipoxygenase (5-LOX) was expressed as a non-tagged protein and used as a crude ammonium sulfate protein fraction, as published previously.^77
(§2) The inhibitor compounds were screened initially using one concentration point on a Perkin-Elmer Lambda 40 UV-Vis spectrometer. […] The reactions were initiated by adding either of ˜40 nM 12-LOX, 40 nM 12/15-LOX, 0.5 μM 15-LOX-2 or ˜200 nM 5-LOX (ammonium sulfate suspension) to a cuvette with a 2 mL reaction buffer constantly stirred using a magnetic stir bar at room temperature (22° C.). […] Inhibitors were stored at −20° C. in DMSO.

[2] = test system: mouse hippocampal HT22 cells; assay: HT22 cell culture assay, glutamate-induced cell death (LDH release); format: cell-based; conditions: for protection against oxidative glutamate toxicity in HT22 cells: 5 mM glutamate, increasing amounts or concentration not stated
Text: Glutamate-induced oxidative stress^67-69 leads to time-dependent cell death mediated by 12/15-LOX in both immature primary neurons and mouse hippocampal HT22 cells.^38,46,70 Primary neurons require a lengthy isolation procedure and also show relatively modest increases in cell death in this assay, indicating they are not suited for a high-throughput testing approach. In contrast, HT22 cells grow quickly and consistently feature low cell death under control conditions, but a majority of cells die after glutamate treatment (50-100%). This assay can be adapted to 96-well plates, allowing for moderate to high throughput against the screened compounds. The characteristic Z′ score used to evaluate the technical quality and suitability as screening tool averaged 0.77 over ten experiments (SD=0.13; range, 0.49-0.94), where values above 0.5 indicate an excellent assay.^71
Treatment consisted of exchanging the medium to 100 μl fresh culturing medium and adding 5 mM glutamate (stock solution 0.5 M in PBS) in the presence or absence of DMSO (maximum 0.1% final concentration) as control or the indicated concentrations of 1. […] Three independent experiments were evaluated. […] The eicosanoids containing fractions were transferred to scintillation vials followed by addition of perdeuterated 13-HODE (13-d31-HODE), as an internal control for extraction and 1.5% glacial acetic acid for protein precipitation. […] The dry samples were then re-constituted in methanol and an internal control 12-deuterated (d8)-HETE (12-d8-HETE), was added to each sample for detector response variation and it was assumed that the change in detector response for 12-HETE and 12-d8-HETE would be similar. […] The Collision Induced Dissociation (CID) was used for MS-MS with collision energy of 35 eV.

[3] = target: human platelet 12-lipoxygenase (12-LOX) (Homo sapiens (Human), UniProt P18054); assay: Lipoxygenase UV-Vis assay, 12-LOX; format: biochemical; conditions: selectivity profiling
Sequence of human platelet 12-lipoxygenase (12-LOX) (P18054 whole entry): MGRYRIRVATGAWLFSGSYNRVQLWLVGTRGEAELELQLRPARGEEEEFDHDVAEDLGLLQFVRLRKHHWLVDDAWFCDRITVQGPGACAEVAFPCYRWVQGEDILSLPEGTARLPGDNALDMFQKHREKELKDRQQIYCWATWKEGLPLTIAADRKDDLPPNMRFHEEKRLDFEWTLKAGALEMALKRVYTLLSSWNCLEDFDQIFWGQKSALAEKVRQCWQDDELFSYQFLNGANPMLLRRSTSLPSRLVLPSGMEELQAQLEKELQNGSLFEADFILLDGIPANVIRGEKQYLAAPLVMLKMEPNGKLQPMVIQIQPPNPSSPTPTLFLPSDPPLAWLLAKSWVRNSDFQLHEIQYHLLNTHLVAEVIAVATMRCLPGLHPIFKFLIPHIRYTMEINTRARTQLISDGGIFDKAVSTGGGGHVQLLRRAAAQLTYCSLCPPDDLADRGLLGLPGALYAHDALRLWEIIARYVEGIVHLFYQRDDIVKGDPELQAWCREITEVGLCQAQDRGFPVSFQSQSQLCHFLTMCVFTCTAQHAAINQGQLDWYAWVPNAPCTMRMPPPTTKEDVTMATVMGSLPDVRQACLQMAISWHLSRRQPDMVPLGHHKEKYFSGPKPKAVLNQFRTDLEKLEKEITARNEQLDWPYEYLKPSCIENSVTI
Experimental: as §1, §2

[4] = target: human epithelial 15-lipoxygenase-2 (15-LOX-2) (Homo sapiens (Human), UniProt O15296); assay: Lipoxygenase UV-Vis assay, 15-LOX-2; format: biochemical; conditions: selectivity profiling
Sequence of human epithelial 15-lipoxygenase-2 (15-LOX-2) (O15296 whole entry): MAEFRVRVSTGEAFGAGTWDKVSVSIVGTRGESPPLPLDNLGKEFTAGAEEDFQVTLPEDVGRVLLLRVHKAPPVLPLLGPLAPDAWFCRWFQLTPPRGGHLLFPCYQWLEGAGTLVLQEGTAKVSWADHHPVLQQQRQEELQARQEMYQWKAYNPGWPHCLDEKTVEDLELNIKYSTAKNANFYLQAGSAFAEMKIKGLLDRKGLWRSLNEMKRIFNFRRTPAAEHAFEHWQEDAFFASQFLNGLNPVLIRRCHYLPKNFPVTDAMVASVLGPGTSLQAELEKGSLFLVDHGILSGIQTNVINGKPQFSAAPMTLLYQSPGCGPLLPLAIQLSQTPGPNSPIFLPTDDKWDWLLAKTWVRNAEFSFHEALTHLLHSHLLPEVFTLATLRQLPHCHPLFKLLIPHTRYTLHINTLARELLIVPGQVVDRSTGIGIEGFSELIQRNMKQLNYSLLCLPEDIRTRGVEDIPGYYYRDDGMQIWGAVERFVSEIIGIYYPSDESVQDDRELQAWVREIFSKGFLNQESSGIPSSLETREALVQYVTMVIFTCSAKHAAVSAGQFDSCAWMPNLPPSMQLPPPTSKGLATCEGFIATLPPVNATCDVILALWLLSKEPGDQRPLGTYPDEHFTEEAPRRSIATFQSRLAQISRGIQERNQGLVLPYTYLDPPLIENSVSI
Experimental: as §1, §2

[5] = test system: warfarin-pretreated mice subjected to transient focal ischemia; assay: Warfarin-associated hemorrhage following experimental stroke (transient focal ischemia); format: in vivo, mouse
Experimental: A) In warfarin-pretreated mice subjected to transient focal ischemia with 3 h occlusion, 50 mg/kg ML351 was administered by i.p. injection 3 h after onset of ischemia (FIG. 9A). This mimics the situation of a patient on warfarin who experiences a severe stroke with hemorrhagic transformation.
B) To investigate if administering tPA to patients with an ischemic stroke who are on warfarin can be made safe, warfarin-pretreated mice were subjected to 2 h of transient focal ischemia, then treated with tPA 4 h after onset of ischemia, and administered 50 mg/kg ML351 by i.p. injection concurrently with tPA.

Caco-2 permeability = conditions: human
[6] = Stability in aqueous solutions; conditions: pH 2, pH 7.4, pH 9
[7] = Microsomal stability, rat liver microsomes; conditions: absence of NADPH; 1 hr period; species not distinguished
[8] = test system: filament model of transient focal ischemia; assay: Filament model of transient focal ischemia; format: in vivo, mouse; conditions: 90 minutes ischemia, sacrifice at 24 hours
[9] = test system: mouse distal MCAO model of permanent focal ischemia; parameters: species or system C57B16J mice; conditions: in vivo
[10] = In vivo PK (mouse) at 30 mpk IP
[11] = Aqueous kinetic solubility; conditions: PBS buffer (pH 7.4)
[12] = target: Human 5-lipoxygenase (5-LOX) (Homo sapiens (Human), UniProt P09917); assay: Lipoxygenase UV-Vis assay, 5-LOX; format: biochemical; conditions: selectivity profiling
Sequence of Human 5-lipoxygenase (5-LOX) (P09917 whole entry): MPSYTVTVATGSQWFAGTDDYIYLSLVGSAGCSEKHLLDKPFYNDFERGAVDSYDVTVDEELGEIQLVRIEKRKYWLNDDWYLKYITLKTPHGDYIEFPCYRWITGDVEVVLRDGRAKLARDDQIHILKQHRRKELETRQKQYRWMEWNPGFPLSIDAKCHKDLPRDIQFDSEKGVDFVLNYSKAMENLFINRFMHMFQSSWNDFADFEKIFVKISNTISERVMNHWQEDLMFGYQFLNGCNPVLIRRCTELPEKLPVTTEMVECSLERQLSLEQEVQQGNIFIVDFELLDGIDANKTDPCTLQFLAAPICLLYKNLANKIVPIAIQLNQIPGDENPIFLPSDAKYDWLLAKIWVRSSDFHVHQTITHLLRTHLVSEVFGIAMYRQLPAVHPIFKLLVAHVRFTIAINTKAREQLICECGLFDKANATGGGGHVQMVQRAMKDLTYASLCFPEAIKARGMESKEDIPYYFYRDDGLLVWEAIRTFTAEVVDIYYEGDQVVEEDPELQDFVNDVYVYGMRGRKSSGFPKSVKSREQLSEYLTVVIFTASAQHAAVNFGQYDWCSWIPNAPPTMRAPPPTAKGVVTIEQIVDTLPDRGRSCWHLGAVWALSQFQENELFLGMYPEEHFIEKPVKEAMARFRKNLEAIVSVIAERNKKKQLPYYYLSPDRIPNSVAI
Experimental: as §1, §2

[13] = UV-Vis cuvette-based assay in triplicate, 10 μM AA, read-out: IC50 (μM) [±SD (μM)]
[14] = male, CD1, mouse, brain, ip, 30 mg/kg
[15] = male, CD1, mouse, plasma, ip, 30 mg/kg

Structure (SMILES): CNc1oc(-c2ccc3ccccc3c2)nc1C#N [Compound 2, 5-(Methylamino)-2-(naphthalen-2-yl)oxazole-4-carbonitrile]
IC50 [1]: > 30 µM

12/15-LOX inhibition in words [1]: did not inhibit human 12/15-LOX
Structure (SMILES): N#Cc1nc(-c2cccc3ccccc23)oc1NC1CNC1 [Compound 31, 5-(Azetidin-3-ylamino)-2-(naphthalen-1-yl)oxazole-4-carbonitrile]
protection against oxidative glutamate toxicity in HT22 cells [2]: protected HT22 cells against oxidative stress

IC50 [1, 13]: > 40 µM
Structure (SMILES): CNc1oc(-c2cccc3nccnc23)nc1C#N [Compound 6, 5-(Methylamino)-2-(quinoxalin-5-yl)oxazole-4-carbonitrile]

IC50 [3]: > 40 µM
IC50 [4]: > 100 µM
Structure (SMILES): CNc1sc(-c2cccc3ccccc23)nc1C#N [Compound 32, 5-(methylamino)-2-(naphthalen-1-yl)thiazole-4-carbonitrile]

Structure (SMILES): CNc1oc(-c2cccc3ccccc23)nc1C#N [Compound 1, 5-(Methylamino)-2-(naphthalen-1-yl)oxazole-4-carbonitrile]
cellular protection in HT22 cells ([2]; 5 μM concentration): cellular protection
protection against oxidative glutamate toxicity in HT22 cells [2]: protective against oxidative glutamate toxicity; also recorded: dose-dependent protection
hemorrhage in the ischemic hemisphere of warfarin-treated mice treated with tPA ([5]; 2 h ischemia, tPA 4 h after onset, 50 mg/kg i.p. concurrently with tPA): significantly reduced
hemorrhage in the ischemic hemisphere of warfarin-treated mice ([5]; 3 h occlusion, 50 mg/kg i.p. 3 h after onset of ischemia): significantly reduced
IC50 [3]: > 100 µM
Papp (Caco-2 permeability): 1.5 ×10⁻⁶ cm/s
stability in aqueous solutions [6]: stable
Mouse Plasma Stability remaining at 2 hours (Mouse plasma stability): 100%
microsomal stability without NADPH [7]: no degradation
infarct size, transient focal ischemia ([8]; 10 mg/kg): did not change the infarct
infarct size, transient focal ischemia ([8]; 25 mg/kg): significantly protective
infarct size, transient focal ischemia ([8]; 50 mg/kg): significantly protective
infarct size, permanent focal ischemia [9]: significantly reduced infarct size
AUC(0-inf) [10, 14]: 35.5 µM·h
Tmax [10, 14]: 30 min
half-life ([10]; male, CD1, mouse, brain, ip, 30 mg/kg, T1/2 (Brain), mouse, 30 mpk IP): ~60 min
AUC(0-inf) [10, 15]: 13 µM·h
Cmax [10, 15]: 13.8 µM
Tmax [10, 15]: 15 min
half-life ([10]; male, CD1, mouse, plasma, ip, 30 mg/kg, T1/2 (Plasma), mouse, 30 mpk IP): ~60 min
Cmax (Brain) ([10]; mouse, 30 mpk IP, brain): 28.8 µM
Kinetic Solubility [11]: 1.2 µM
Permeability (PAMPA) (PAMPA permeability): 723 10^−6 cm/s

Structure (SMILES): CNc1oc(-c2ccc3cc[nH]c3c2)nc1C#N [Compound 13, 2-(1H-indol-6-yl)-5-(methylamino)oxazole-4-carbonitrile]
IC50 [1]: > 40 µM

IC50 [1, 13]: > 40 µM
Structure (SMILES): CNc1oc(-c2ccc3c(c2)OCCO3)nc1C#N [Compound 9, 2-(2,3-Dihydrobenzo[b][1,4]dioxin-6-yl)-5-(methylamino)oxazole-4-carbonitrile]

12/15-LOX inhibition in words [1]: did not inhibit human 12/15-LOX
Structure (SMILES): CNc1oc(-c2ccc(-c3ccccc3)cc2)nc1C#N [Compound 11, 2-([1,1′-Biphenyl]-4-yl)-5-(methylamino)oxazole-4-carbonitrile]
protection against oxidative glutamate toxicity in HT22 cells [2]: protected HT22 cells against oxidative stress

Structure (SMILES): CC(C)Nc1oc(-c2cccc3ccccc23)nc1C#N [Compound 26, 5-(Isopropylamino)-2-(naphthalen-1-yl)oxazole-4-carbonitrile]
12/15-LOX inhibition in words [1]: significantly reduced the potency

Structure (SMILES): CNc1oc(-c2ccc(Cl)c(Cl)c2)nc1C#N [Compound 8, 2-(3,4-Dichlorophenyl)-5-(methylamino)oxazole-4-carbonitrile]
protection against glutamate-induced cell death in HT22 cells ([2]; concentrations of 2 to 10): dose-dependent cell protective effect

IC50 [1, 13]: > 30 µM
Structure (SMILES): CNc1oc(-c2cccc3cnccc23)nc1C#N [Compound 3, 2-(Isoquinolin-5-yl)-5-(methylamino)oxazole-4-carbonitrile]

IC50 [12]: > 100 µM
Structure (SMILES): CNc1oc(-c2cccc(Cl)c2Cl)nc1C#N [Compound 7, 2-(2,3-Dichlorophenyl)-5-(methylamino)oxazole-4-carbonitrile]
protection against glutamate-induced cell death in HT22 cells ([2]; concentration of 10 μM): some protection
